Test results reported in US12157741B2, “Macrocyclic inhibitors of DYRK1A” (DANA-FARBER CANCER INSTITUTE, INC., priority 2018, dated 2024).
Read-outs that look alike come from different tables or passages of the source.

How the values were obtained:
Assay type in all cases: binding
various enzymes [1] = target: various enzymes (Homo sapiens, UniProt Q96Q40); settings: compound 1 uM
Method: (§1) Ambit profiling was conducted in accordance with the manufacturer's instructions.

various enzymes [2] = target: various enzymes (Homo sapiens, UniProt Q9H2X6); settings: compound 1 uM
Sequence of various enzymes (Homo sapiens, UniProt Q9H2X6) (Q9H2X6 whole entry): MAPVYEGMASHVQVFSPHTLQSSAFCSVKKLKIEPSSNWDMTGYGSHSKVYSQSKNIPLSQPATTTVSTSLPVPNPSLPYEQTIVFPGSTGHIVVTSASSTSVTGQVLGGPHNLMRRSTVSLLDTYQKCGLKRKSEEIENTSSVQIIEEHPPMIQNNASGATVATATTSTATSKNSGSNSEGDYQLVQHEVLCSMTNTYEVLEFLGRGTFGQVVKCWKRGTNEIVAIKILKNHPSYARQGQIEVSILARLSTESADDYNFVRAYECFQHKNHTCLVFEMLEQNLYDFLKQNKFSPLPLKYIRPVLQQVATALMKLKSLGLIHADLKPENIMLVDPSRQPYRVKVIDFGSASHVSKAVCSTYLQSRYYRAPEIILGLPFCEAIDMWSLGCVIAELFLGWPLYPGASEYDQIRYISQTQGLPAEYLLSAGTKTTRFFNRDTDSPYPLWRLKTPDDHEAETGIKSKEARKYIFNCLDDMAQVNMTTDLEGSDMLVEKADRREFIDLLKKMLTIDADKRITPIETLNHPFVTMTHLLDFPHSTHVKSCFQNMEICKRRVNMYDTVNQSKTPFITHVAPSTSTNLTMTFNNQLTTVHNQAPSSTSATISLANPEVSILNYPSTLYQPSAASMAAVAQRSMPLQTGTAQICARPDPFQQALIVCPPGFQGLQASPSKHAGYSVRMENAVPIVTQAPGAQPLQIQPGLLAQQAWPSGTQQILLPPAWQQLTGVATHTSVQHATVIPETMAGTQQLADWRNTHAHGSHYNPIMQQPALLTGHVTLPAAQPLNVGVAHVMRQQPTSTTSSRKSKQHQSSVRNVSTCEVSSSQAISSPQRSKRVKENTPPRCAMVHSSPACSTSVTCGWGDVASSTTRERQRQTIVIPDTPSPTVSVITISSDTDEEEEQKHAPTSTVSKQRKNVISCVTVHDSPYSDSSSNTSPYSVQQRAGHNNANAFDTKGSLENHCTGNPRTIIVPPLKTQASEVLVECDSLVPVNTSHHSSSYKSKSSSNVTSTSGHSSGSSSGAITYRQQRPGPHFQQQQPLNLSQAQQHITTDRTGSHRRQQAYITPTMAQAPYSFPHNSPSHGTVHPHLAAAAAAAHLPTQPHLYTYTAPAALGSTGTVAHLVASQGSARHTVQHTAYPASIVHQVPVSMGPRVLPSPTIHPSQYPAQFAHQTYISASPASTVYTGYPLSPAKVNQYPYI
Method: as §1

various enzymes [3] = target: T1, various enzymes (Homo sapiens, UniProt Q9H093); settings: compound 1 uM
T1 sequence (Q9H093 1-628): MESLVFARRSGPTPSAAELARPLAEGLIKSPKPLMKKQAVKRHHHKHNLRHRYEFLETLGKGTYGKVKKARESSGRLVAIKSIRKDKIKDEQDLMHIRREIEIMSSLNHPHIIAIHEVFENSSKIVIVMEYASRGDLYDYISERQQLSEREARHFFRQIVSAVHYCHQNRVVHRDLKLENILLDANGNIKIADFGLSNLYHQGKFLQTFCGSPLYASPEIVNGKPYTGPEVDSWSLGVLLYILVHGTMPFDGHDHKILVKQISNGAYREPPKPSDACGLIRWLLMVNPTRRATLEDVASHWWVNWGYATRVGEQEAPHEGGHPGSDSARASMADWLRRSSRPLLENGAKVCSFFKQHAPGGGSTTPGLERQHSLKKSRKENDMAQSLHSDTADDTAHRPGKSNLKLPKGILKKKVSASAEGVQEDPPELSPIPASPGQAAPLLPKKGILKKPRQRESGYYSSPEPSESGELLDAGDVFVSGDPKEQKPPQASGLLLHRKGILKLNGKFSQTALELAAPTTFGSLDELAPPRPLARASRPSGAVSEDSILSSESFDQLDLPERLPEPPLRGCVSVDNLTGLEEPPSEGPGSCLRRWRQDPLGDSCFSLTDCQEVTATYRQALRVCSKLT
Method: as §1

various enzymes [4] = target: various enzymes (Homo sapiens, UniProt Q7L7X3); settings: compound 1 uM
Method: as §1

various enzymes [5] = target: T2, various enzymes (Homo sapiens, UniProt Q13043); settings: compound 1 uM
T2 sequence (Q13043 1-487): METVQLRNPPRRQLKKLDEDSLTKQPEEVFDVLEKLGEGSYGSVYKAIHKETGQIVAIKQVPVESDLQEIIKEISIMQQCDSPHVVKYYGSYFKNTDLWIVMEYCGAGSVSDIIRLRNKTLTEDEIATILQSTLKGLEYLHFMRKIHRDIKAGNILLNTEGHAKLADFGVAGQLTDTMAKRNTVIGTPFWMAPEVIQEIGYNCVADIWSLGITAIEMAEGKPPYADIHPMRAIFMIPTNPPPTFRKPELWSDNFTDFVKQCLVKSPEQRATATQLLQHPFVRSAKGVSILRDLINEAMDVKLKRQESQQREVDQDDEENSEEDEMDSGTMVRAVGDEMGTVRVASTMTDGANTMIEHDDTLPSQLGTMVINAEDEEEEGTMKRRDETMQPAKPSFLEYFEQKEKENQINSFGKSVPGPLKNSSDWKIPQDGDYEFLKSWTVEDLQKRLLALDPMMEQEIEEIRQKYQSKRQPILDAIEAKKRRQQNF
Method: as §1

various enzymes [6] = target: various enzymes (Homo sapiens, UniProt Q9BRS2); settings: compound 1 uM
Sequence of various enzymes (Homo sapiens, UniProt Q9BRS2) (Q9BRS2 whole entry): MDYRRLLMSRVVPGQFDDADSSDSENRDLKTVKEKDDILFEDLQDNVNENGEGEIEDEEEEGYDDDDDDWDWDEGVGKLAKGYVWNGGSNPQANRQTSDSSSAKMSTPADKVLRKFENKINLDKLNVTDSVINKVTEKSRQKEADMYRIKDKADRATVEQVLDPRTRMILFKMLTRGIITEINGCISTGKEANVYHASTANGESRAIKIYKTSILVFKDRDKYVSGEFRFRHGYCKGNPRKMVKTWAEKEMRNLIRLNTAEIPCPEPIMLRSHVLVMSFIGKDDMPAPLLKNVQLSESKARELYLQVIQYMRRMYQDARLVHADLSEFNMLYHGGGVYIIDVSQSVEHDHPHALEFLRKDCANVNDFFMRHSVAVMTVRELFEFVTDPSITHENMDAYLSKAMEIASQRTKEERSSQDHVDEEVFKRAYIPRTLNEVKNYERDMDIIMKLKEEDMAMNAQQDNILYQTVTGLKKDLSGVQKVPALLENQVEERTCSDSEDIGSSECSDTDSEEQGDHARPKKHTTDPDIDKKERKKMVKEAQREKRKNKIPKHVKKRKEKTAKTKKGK
Method: as §1

various enzymes [7] = target: various enzymes (Homo sapiens, UniProt P06241); settings: compound 1 uM
Sequence of various enzymes (Homo sapiens, UniProt P06241) (P06241 whole entry): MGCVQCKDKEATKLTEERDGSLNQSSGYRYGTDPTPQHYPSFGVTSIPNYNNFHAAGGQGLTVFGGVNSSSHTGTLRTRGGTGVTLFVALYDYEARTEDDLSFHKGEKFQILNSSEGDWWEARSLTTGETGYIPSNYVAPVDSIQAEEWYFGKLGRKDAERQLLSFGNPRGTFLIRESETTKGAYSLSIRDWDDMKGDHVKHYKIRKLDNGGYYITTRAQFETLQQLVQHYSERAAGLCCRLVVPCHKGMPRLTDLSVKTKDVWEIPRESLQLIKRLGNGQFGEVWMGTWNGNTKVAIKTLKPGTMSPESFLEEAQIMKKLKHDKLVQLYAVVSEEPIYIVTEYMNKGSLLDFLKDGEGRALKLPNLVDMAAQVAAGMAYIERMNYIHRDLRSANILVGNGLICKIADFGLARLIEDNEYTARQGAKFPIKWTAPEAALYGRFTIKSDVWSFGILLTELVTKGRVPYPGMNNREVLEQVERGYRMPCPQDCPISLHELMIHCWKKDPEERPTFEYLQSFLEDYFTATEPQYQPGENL
Method: as §1

various enzymes [8] = target: various enzymes (Homo sapiens, UniProt P07332); settings: compound 1 uM
Method: as §1

various enzymes [9] = target: various enzymes (Homo sapiens, UniProt Q9H0K1); settings: compound 1 uM
Sequence of various enzymes (Homo sapiens, UniProt Q9H0K1) (Q9H0K1 whole entry): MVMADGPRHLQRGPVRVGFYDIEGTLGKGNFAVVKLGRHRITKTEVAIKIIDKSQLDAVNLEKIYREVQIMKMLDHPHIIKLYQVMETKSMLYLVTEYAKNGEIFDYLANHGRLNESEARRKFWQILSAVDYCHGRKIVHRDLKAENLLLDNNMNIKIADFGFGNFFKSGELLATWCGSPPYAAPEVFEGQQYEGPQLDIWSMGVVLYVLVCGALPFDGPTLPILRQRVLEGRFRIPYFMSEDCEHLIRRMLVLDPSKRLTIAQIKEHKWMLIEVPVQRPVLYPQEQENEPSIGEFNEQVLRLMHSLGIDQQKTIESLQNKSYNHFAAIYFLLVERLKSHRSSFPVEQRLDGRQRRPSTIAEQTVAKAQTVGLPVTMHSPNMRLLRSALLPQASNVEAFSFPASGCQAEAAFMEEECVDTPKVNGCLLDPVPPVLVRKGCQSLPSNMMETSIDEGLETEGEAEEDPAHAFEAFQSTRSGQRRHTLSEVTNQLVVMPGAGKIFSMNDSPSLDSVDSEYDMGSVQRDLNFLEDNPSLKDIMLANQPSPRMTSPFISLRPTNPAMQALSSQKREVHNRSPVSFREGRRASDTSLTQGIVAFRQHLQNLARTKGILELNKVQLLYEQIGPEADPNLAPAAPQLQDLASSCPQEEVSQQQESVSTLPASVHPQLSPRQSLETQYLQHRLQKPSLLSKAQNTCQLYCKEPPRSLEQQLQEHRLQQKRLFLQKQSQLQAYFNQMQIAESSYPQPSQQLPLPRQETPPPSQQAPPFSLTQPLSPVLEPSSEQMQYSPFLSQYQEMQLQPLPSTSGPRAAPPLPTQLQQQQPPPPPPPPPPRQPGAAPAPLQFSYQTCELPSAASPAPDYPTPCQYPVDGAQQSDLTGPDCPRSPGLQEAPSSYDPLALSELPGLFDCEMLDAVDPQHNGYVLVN
Method: as §1

various enzymes [10] = target: various enzymes (Homo sapiens, UniProt Q99759); settings: compound 1 uM
Sequence of various enzymes (Homo sapiens, UniProt Q99759) (Q99759 whole entry): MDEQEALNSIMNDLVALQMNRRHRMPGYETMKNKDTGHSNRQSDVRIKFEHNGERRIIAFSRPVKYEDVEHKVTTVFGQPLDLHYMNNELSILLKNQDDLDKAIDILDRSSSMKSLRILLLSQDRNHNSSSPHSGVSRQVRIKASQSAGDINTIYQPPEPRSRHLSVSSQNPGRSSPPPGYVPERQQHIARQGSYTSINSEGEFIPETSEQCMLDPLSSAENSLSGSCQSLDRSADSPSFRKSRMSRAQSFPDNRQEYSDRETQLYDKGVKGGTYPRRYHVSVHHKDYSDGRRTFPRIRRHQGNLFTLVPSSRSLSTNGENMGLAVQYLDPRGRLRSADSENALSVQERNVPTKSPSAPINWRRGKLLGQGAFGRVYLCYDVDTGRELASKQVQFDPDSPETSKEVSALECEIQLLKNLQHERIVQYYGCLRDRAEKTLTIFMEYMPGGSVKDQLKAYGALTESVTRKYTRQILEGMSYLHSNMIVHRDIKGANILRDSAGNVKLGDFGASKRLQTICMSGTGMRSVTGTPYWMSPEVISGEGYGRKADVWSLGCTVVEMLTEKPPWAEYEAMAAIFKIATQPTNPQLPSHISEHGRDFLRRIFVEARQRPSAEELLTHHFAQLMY
Method: as §1

various enzymes [11] = target: various enzymes (Homo sapiens, UniProt O76039); settings: compound 1 uM
Method: as §1

various enzymes [12] = target: various enzymes (Homo sapiens, UniProt P53778); settings: compound 1 uM
Method: as §1

various enzymes [13] = target: various enzymes (Homo sapiens, UniProt P42684); settings: compound 1 uM
Method: as §1

various enzymes [14] = target: various enzymes (Homo sapiens, UniProt P36888, D835H)
Method: as §1

various enzymes [15] = target: various enzymes (Homo sapiens, UniProt Q13555); settings: compound 1 uM
Sequence of various enzymes (Homo sapiens, UniProt Q13555) (Q13555 whole entry): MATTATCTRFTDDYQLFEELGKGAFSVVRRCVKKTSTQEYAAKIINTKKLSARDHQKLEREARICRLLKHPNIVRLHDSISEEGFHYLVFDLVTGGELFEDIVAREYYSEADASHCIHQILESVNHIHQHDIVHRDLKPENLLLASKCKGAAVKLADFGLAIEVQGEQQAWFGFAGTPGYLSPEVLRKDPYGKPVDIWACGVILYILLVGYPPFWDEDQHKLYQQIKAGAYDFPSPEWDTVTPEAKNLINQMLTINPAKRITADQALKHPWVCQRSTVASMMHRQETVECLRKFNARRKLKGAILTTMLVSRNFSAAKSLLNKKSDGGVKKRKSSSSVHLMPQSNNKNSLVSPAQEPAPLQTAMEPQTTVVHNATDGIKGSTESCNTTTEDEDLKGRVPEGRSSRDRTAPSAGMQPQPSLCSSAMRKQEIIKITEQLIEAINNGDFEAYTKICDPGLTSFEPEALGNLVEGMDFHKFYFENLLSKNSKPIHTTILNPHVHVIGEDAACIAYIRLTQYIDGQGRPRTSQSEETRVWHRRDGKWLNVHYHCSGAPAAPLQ
Method: as §1

various enzymes [16] = target: T3, various enzymes (Homo sapiens, UniProt Q8IVH8); settings: compound 1 uM
T3 sequence (Q8IVH8 1-894): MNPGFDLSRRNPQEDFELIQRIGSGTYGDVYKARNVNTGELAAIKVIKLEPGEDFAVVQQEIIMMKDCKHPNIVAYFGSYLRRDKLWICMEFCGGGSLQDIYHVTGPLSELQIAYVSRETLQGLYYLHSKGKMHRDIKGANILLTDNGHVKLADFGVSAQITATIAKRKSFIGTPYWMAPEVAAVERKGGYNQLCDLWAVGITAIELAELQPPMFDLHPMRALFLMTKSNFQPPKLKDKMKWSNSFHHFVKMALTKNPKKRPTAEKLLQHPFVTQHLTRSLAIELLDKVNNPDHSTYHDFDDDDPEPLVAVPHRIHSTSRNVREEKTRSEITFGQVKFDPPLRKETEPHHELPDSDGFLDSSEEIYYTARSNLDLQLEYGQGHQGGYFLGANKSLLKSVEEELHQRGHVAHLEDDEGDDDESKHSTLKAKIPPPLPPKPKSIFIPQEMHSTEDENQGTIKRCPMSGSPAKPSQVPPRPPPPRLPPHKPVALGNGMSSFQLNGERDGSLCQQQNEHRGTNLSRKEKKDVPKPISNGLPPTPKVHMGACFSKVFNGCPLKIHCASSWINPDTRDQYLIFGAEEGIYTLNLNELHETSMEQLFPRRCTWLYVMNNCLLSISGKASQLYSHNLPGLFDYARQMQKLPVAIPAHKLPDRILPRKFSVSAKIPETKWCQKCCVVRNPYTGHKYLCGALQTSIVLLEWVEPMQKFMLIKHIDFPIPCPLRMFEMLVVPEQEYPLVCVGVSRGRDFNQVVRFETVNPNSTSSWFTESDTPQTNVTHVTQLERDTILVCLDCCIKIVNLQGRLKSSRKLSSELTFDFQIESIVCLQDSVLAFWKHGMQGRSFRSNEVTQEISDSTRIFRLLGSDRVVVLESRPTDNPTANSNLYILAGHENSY
Method: as §1

various enzymes [17] = target: various enzymes (Homo sapiens, UniProt P49137); settings: compound 1 uM
Method: as §1

Sequence of various enzymes (Homo sapiens, UniProt Q96Q40) (Q96Q40 whole entry): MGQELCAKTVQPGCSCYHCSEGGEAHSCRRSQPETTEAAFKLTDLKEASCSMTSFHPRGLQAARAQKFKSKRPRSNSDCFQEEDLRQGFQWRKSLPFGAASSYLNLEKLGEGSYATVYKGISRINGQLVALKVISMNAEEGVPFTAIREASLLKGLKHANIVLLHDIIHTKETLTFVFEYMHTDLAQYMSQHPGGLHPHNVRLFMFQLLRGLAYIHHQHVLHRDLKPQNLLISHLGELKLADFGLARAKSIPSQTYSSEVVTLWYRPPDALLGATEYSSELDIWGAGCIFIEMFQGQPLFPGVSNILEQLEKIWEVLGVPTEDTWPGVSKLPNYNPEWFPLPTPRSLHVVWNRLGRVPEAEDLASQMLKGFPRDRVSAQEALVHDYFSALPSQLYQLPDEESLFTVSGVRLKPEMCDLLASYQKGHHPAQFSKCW

| SMILES | Ambit profiling: PFTAIRE2 (various enzymes [1]) | Ambit profiling: HIPK2 (various enzymes [2]) | Ambit profiling: SNARK (various enzymes [3]) | Ambit profiling: TAOK1 (various enzymes [4]) | Ambit profiling: MST1 (various enzymes [5]) | Ambit profiling: RIOK1 (various enzymes [6]) | Ambit profiling: FYN (various enzymes [7]) | Ambit profiling: FES (various enzymes [8]) | Ambit profiling: SIK2 (various enzymes [9]) | Ambit profiling: MAP3K3 (various enzymes [10]) | Ambit profiling: CDKL5 (various enzymes [11]) | Ambit profiling: p38-gamma (various enzymes [12]) | Ambit profiling: ABL2 (various enzymes [13]) | Ambit profiling: FLT3(D835H) (various enzymes [14]) | Ambit profiling: CAMK2G (various enzymes [15]) | Ambit profiling: MAP4K3 (various enzymes [16]) | Ambit profiling: MAPKAPK2 (various enzymes [17]) | Ambit profiling: RICK1 (various enzymes [6]) | Ambit profiling: FLT3(D835H) (various enzymes [14]; compound 1 uM) |
| --- | --- | --- | --- | --- | --- | --- | --- | --- | --- | --- | --- | --- | --- | --- | --- | --- | --- | --- | --- |
| COc1c2c(nn1C)CN(C(C)C)C(=O)CCCn1cc(c(C(F)(F)F)n1)-c1c[nH]c3ncc-2cc13 [Compound 50, (Z)-5-isopropyl-35-methoxy-31-methyl-13-(trifluoromethyl)-11H,21H,31H-5-aza-2(3,5)-pyrrolo[2,3-b]pyridina-1(4,1),3(4,3)-dipyrazolacyclononaphan-6-one] | 60 | 13 | 47 | 82 | 2.2 | 16 | 28 | 31 | 32 | 0.3 | 100 | 75 | 22 | 2.8 | 31 | 16 | 100 |  |  |
| CC(C)N1Cc2nn(C)cc2-c2cnc3[nH]cc(c3c2)-c2cn(nc2C(F)(F)F)CCCC1=O [Compound 45, (Z)-5-isopropyl-31-methyl-13-(trifluoromethyl)-11H,21H,31H-5-aza-2(3,5)-pyrrolo[2,3-b]pyridina-1(4,1),3(4,3)-dipyrazolacyclononaphan-6-one] | 39 | 6 | 14 | 8.8 | 2.8 |  | 39 | 74 | 27 | 0.35 | 68 | 74 | 42 |  | 24 | 18 | 100 | 1.4 | 1.6 |
